For this assay, the target named is T1, PPARγ (Homo sapiens, UniProt P37231).
T1 construct: HA; made in house
T1 sequence (P37231 1-505): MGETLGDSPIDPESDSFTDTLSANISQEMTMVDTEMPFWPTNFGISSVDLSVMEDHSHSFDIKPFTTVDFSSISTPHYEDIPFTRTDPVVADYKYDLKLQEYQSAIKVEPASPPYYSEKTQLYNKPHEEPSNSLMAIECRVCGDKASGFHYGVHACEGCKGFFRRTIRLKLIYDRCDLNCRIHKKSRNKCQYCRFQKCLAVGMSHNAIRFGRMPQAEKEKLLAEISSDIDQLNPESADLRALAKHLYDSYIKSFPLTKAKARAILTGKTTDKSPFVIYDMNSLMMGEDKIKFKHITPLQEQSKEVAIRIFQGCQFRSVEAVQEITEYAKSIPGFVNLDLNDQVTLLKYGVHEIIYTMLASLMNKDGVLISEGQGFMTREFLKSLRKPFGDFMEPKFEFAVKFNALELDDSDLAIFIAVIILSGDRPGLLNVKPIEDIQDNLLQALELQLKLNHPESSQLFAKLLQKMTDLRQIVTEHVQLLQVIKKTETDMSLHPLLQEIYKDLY
In words: SPR analysis of binding to immobilised HA-PPARγ. Particulars: MD001 31.25-500 μM. As to the method: SPR analysis was performed using a Reichert SR7500DC (Reichert Technologies, Depew, NY, USA). HA-PPARα, HA-PPARβ/δ, and HA-PPARγ were purified as previously described[23] and was immobilised on CMDH chips (Reichert Technologies) according to the manufacturer’s instructions. MD001 was loaded in a dose-dependent manner (31.25, 62.5, 125, 250, and 500 μM) for the SPR assay. The dissociation constant (KD) value was determined using the Scrubber2 program (Informer Technologies, Inc., Los Angeles, CA, USA).
(In SPR one partner is held on a chip, and binding of the other changes the refractive index at the surface.)

Usually Kd stands for the constant that tells how readily two partners part at equilibrium. A higher Kd goes with lower affinity.

Regarding `Cc1c(O)cc(O)c2c(-c3ccccc3)c(C(=O)/C=C/c3ccccc3)c(=O)oc12` [MD001], the Kd came out at 140 ± 30 nM.

For the origin of these results see paper PMC6367362, “MD001, a Novel Peroxisome Proliferator-activated Receptor α/γ Agonist, Improves Glucose and Lipid Metabolism” (Scientific Reports, 2019).
